Data taken from patent US10160762B2, “6-alkyl dihydropyrazolopyrimidinone compounds as PDE2 inhibitors” (Merck Sharp & Dohme Corp., priority 2015, dated 2018).

Target: T1, Rhesus PDE2A3 (Macaca mulatta, UniProt B3VTJ2)
T1 construct: made in house; host or cells: AD293 cells, transient transfection; supernatant of sonicated lysate
T1 sequence (B3VTJ2 1-941): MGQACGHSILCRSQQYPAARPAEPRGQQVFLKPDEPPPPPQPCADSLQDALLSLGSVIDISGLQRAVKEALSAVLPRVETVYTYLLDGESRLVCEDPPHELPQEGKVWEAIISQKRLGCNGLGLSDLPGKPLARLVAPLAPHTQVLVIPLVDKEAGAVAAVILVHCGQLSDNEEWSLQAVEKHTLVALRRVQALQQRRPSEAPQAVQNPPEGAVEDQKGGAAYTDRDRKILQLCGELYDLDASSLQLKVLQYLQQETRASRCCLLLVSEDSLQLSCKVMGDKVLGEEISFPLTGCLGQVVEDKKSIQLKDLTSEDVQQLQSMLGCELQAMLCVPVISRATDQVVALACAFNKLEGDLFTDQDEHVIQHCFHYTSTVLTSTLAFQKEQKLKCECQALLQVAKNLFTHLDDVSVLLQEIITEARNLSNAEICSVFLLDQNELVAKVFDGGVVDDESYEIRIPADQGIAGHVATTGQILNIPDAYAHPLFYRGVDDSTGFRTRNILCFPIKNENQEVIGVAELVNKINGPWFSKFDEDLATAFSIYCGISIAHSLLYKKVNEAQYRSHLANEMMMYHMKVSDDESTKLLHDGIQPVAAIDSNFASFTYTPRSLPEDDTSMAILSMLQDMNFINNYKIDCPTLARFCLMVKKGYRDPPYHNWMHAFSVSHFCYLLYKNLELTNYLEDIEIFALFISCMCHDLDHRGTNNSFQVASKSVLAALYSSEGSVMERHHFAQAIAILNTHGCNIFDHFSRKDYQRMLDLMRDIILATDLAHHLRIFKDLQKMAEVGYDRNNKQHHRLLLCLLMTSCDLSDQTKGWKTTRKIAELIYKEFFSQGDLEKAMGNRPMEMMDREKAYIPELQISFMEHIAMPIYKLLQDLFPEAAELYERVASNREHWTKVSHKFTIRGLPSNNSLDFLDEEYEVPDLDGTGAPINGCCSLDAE
Assay: PDE2 fluorescence polarization (IMAP FP) inhibition assay, rhesus PDE2A3
Assay type: biochemical, rhesus macaque
Conditions: Lab B; read-out: Rhesus PDE2 Ki (nM) Lab B
How it was run: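 Enzyme source was the lysate supernatant of AD293 cells transiently expressing rhesus PDE2A3, diluted to give 20% conversion of 50 nM FAM-cAMP, with 1 µM cGMP as activator. Buffer was 10 mM Tris pH 7.2, 10 mM MgCl2, 1 mM DTT.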

Row | Structure (SMILES) | Ki
1 | Cc1nc2c(c(CF)nn2C(c2ccc(C(F)(F)F)cc2)C(C)(C)C)c(=O)[nH]1 (single isomer, unassigned) [Example 234, (S)- or (R)-1-(2,2-Dimethyl-1-(4-(trifluoromethyl)phenyl)propyl)-3-(fluoromethyl)-6-methyl-1H-pyrazolo[3,4-d]pyrimidin-4(5H)-one] | 15 nM
2 | Cc1nc2c(c(C#N)nn2C(C)c2ccc(C(F)(F)F)cc2)c(=O)[nH]1 (single isomer, unassigned) [Example 252] | 20 nM
3 | COCc1nn(C(C)c2ccc(C(F)(F)F)cc2)c2nc(C)[nH]c(=O)c12 (single isomer, unassigned) [Example 279] | 24 nM
4 | Cc1nc2c(c(CC#N)nn2C(C)c2ccc(C(F)(F)F)cc2)c(=O)[nH]1 (single isomer, unassigned) [Example 280] | 71 nM
5 | Cc1nc2c(c(CC(F)F)nn2C(C)c2ccc(C(F)(F)F)cc2)c(=O)[nH]1 (single isomer, unassigned) [Example 285] | 179 nM
6 | Cc1nc2c(c(CC(F)F)nn2C(C)c2ccc(C(F)(F)F)cc2)c(=O)[nH]1 (single isomer, unassigned) [Example 286] | 3.7 nM
7 | Cc1nc2c(c(CO)nn2C2(c3ccc(C(F)(F)F)cc3)CCC2)c(=O)[nH]1 [Example 78, 3-(Hydroxymethyl)-6-methyl-1-(1-(4-(trifluoromethyl)phenyl)cyclobutyl)-1H-pyrazolo[3,4-d]pyrimidin-4(5H)-one] | 6.7 nM
8 | Cc1nc2c(c(C=O)nn2C(C)c2ccc(C(F)(F)F)cc2)c(=O)[nH]1 (centres unmarked) [Example 248, 6-Methyl-4-oxo-1-(1-(4-(trifluoromethyl)phenyl)ethyl)-4,5-dihydro-1H-pyrazolo[3,4-d]pyrimidine-3-carbaldehyde] | 53 nM
9 | Cc1nc2c(c(/C=N\O)nn2C(C)c2ccc(C(F)(F)F)cc2)c(=O)[nH]1 (centres unmarked) [Example 251, (Z)-6-Methyl-4-oxo-1-(1-(4-(trifluoromethyl)phenyl)ethyl)-4,5-dihydro-1H-pyrazolo[3,4-d]pyrimidine-3-carbaldehyde oxime] | 8.9 nM
10 | CC(c1ccc(C(F)(F)F)cc1)n1nc(CO)c2c(=O)[nH]c(C(F)F)nc21 (centres unmarked) [Example 284, 6-(Difluoromethyl)-3-(hydroxymethyl)-1-(1-(4-(trifluoromethyl)phenyl)ethyl)-1H-pyrazolo[3,4-d]pyrimidin-4(5H)-one] | 69 nM

More lines, now with the values ahead:

Row | Ki | Structure (SMILES)
11 | 2 nM | Cc1nc2c(c(CCO)nn2C(C)c2ccc(C(F)(F)F)cc2)c(=O)[nH]1 (single isomer, unassigned) [Example 250]
12 | 1.5 nM | Cc1nc2c(c(C(F)(F)CO)nn2C(C)c2ccc(C(F)(F)F)cc2)c(=O)[nH]1 (single isomer, unassigned) [Example 255]
13 | 1.9 nM | Cc1nc2c(c(CC#N)nn2C(C)c2ccc(C(F)(F)F)cc2)c(=O)[nH]1 (single isomer, unassigned) [Example 281]
14 | 3.6 nM | COCc1nc2c(c(CO)nn2C(C)c2ccc(C(F)(F)F)cc2)c(=O)[nH]1 (single isomer, unassigned) [Example 293]
